Literature values as cited in US20060148897A1, “Method for sterilization using in situ gelling materials” (priority 2002, published 2006).

Conditions: amine group (alpha amine; lysine: side chain epsilon amine)

| SMILES | pK |
| --- | --- |
| NC(=O)C[C@H](N)C(=O)O [asparagine] | 8.8 |
| NCCCC[C@H](N)C(=O)O [lysine] | 10.80 |
